{"source": "paper PMC12605013", "about": "“SAG1.3-derived Frizzled-targeting small-molecule compounds” (The Journal of Biological Chemistry, 2025)", "key": {"ΔCRD-Nluc-FZD6": {"biological_target": "T1, ΔCRD-Nluc-FZD6 (Homo sapiens, UniProt O60353)", "T1 construct": "amplifying ΔCRD-FZD6 (starting from D156) using SNAP-FZD6 as a template; expressed in transfected cells; host or cells: ΔFZD1–10 HEK293T cells", "T1 sequence (O60353 156-706)": "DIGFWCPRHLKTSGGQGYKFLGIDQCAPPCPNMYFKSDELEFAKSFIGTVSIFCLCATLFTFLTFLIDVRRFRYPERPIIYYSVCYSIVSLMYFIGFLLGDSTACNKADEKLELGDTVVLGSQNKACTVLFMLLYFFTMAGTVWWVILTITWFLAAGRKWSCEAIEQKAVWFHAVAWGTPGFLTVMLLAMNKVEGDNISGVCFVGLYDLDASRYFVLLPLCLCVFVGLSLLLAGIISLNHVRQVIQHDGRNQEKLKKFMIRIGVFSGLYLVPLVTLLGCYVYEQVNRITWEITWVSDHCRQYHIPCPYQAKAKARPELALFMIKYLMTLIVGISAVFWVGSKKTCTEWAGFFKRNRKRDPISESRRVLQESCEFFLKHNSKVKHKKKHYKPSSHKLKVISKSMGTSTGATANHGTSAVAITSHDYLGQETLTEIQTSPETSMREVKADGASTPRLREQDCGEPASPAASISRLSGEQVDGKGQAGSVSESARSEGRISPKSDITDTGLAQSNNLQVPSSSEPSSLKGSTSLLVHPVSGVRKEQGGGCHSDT", "test": "BRET-based BODIPY-cyclopamine competition binding at FZD6 lacking the CRD", "conditions": "BODIPY-cyclopamine 200 nM; ΔFZD1-10 HEK293T cells; read-out: pIC50 (11) mean ± SEM, ΔCRD-Nluc-FZD6 (converted)", "experimental": "(§1) After 24 h, cells were washed once with Hanks' balanced salt solution (HBSS), followed by the addition of 80 μl of HBSS. Next, 10 μl of the competitive ligand, that is, the tested SAG1.3 derivative (either in different concentrations for the concentration–response curves or at a final concentration of 10 μM for the first screens) and 10 μl of the fluorescent tracer BODIPY–cyclopamine (final concentration: 300 nM for the first screens, 200 nM for the concentration–response experiments) were added. All serial dilutions were prepared in HBSS. The cells were incubated for 90 min at 37 °C without additional CO2, after which 10 μl of luciferase substrate diluted in HBSS (furimazine; Promega, N1572, final dilution: 1:1000 for first screening) and coelenterazine h (Biosynth; final concentration: 5 μM for concentration–response experiments) were added to the cells. Following a 10 min incubation period in the dark, the measurement was started on a BMG Labtech ClarioStar or TECAN Spark multimode microplate reader, prewarmed to 37 °C. Nluc bioluminescence was detected between 460 and 490 nm (ClarioStar) or 460 and 500 nm (TECAN Spark). The emission of the fluorescent tracer was detected between 520 and 550 nm (ClarioStar) or between 520 and 560 nm (TECAN Spark). […]"}, "Nluc-FZD7": {"biological_target": "T2, Nluc-FZD7 (Homo sapiens, UniProt O75084)", "T2 construct": "expressed in transfected cells; host or cells: ΔFZD1–10 HEK293T cells", "test": "BRET-based BODIPY-cyclopamine competition binding at Nluc-FZD7", "conditions": "BODIPY-cyclopamine 200 nM; ΔFZD1-10 HEK293T cells; read-out: pIC50 (11) mean ± SEM, Nluc-FZD7 (converted)", "experimental": "as §1"}, "[1]": {"biological_target": "T3, firefly luciferase (Fluc) (Photinus pyralis, UniProt P08659)", "T3 construct": "expressed in transfected cells; host or cells: HEK293 cells", "T3 sequence (P08659 whole entry)": "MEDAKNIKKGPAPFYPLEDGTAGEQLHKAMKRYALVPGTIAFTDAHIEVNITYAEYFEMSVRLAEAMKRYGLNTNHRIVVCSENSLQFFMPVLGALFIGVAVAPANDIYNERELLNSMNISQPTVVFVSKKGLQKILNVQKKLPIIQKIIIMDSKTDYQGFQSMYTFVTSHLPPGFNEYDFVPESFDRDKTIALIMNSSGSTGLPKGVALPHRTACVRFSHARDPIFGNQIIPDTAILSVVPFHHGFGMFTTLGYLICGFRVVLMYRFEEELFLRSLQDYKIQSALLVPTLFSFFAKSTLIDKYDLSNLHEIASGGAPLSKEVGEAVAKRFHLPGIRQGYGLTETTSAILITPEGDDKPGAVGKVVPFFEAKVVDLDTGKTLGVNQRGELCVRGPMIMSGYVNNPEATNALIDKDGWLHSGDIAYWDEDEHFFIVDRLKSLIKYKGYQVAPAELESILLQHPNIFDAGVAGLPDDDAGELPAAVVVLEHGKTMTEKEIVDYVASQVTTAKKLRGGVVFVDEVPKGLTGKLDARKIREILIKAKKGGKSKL", "test": "Fluc counter assay (CMV-driven recombinant Fluc in HEK293 cells)", "format": "cell-based", "conditions": "counter assay for readout interference", "experimental": "Figure S3. […] Experiments were performed in HEK293 cells."}, "[2]": {"tested_on": "HiBiT-FZD4, HiBiT-FZD7 or HiBiT-FZD8", "test": "TOPFlash reporter gene assay, test for paralog selectivity", "conditions": "10 µM compound; 300 ng/mL WNT-3A", "protocol": "The transfected cell suspension was then seeded (45,000 cells/well) into a PDL-coated, white opaque 96-well plate. One day after transfection, cells were washed once with HBSS, and 80 μl of serum-free DMEM containing 10 nM of the porcupine inhibitor C59 were added. […] All ligands/vehicle controls were diluted in serum-free DMEM containing 10 nM C59. One day after ligand stimulation, cells were washed once with HBSS, and the lysis was started using 1× Passive Lysis Buffer (Promega; catalog no.: E1910, 20 μl/well), after which the plate was shaken for 20 min at room temperature. Fluc and Rluc bioluminescence were then assessed using the Dual-Luciferase Assay System (Promega; catalog no.: E1910, 20 μl of both LARII [Luciferase Assay II reagent] and 1× Stop-and-Glo Reagent). Measurements were performed using a TECAN Spark multimode microplate reader.\nFor reporter gene assays, the TOPFlash ratio was defined as the ratio of β-catenin-dependent gene transcription (Fluc) over a constitutively expressed transfection control (Rluc). For all experiments, the calculated TOPFlash ratios were normalized to the respective vehicle conditions.\nExperiments were performed in ΔFZD1-10 HEK293T cells transiently transfected with HiBiT-FZD4 (A), HiBiT-FZD7 (B) or HiBiT-FZD8 (C). Data represent mean values ± SEM from three independent experiments performed in triplicate. […]"}, "HPAF-II cells": {"tested_on": "HPAF-II cells", "test": "Cell viability (AlamarBlue) of HPAF-II cells", "format": "cell-based, human", "conditions": "one-week treatment; 10 µM", "experimental": "HPAF-II cells and PANC-1 cells were seeded in DMEM at a density of 1000 cells per well into a black opaque 96-well plate (Greiner BioOne). After 1 day, the medium was exchanged with complete DMEM containing either compound 11, the porcupine inhibitor C59, or DMSO (vehicle control). After 3 days of incubation (37 °C, 5% CO2), the medium was exchanged once again with DMEM containing the same concentration of ligands or DMSO (vehicle control). Three days after (equal to 7 days after seeding), the medium was removed and 90 μl of fresh DMEM (without any ligands) were added. Last, 10 μl of AlamarBlue HS reagent (Thermo Fisher Scientific; catalog no.: A50100) were added to each well, and the cells were incubated for 4 h at 37 °C inside the incubator (5% CO2). After the incubation step, fluorescence was read using a TECAN Spark multimode microplate reader (excitation: 535 ± 25 nm, emission: 595 ± 35 nm).\nFor each cell viability experiment, the fluorescence measured in ligand-treated wells was normalized to the average fluorescence from wells treated with vehicle control (DMSO)."}, "Nluc-FZD5": {"biological_target": "T4, Nluc-FZD5 (Homo sapiens, UniProt Q13467)", "T4 construct": "expressed in transfected cells; host or cells: ΔFZD1–10 HEK293T cells", "T4 sequence (Q13467 27-585)": "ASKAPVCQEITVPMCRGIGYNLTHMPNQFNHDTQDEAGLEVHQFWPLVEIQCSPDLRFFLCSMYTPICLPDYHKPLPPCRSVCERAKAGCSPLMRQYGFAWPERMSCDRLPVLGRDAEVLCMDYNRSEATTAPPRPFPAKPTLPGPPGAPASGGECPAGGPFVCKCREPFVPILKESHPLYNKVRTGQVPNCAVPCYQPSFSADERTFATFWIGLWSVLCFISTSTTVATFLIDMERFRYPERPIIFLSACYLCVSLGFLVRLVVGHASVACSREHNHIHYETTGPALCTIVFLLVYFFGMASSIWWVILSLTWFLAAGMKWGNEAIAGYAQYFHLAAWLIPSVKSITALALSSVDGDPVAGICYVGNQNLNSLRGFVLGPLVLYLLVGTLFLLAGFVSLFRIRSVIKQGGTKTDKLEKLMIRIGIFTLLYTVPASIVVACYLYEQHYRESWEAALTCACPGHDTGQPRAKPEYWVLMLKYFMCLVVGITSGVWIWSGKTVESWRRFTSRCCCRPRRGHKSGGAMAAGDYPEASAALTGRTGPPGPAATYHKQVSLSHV", "test": "BRET-based BODIPY-cyclopamine competition binding at Nluc-FZD5", "conditions": "BODIPY-cyclopamine 200 nM; ΔFZD1-10 HEK293T cells; read-out: pIC50 (11) mean ± SEM, Nluc-FZD5 (converted)", "experimental": "as §1"}, "human FZD5": {"tested_on": "human FZD5", "test": "TOPFlash reporter gene assay in ΔFZD1–10 HEK293T cells transfected with HiBiT-FZD5", "format": "cell-based", "conditions": "for IC50: Homo sapiens, HEK-293T, 300 ng/ml WNT-3A, HiBiT-FZD5"}}, "note": "Where two headings read alike, the source gives them in different places.", "data": [{"smiles": "CC(=O)Nc1cccc(C(=O)NC2CCC(N(Cc3cccc(-c4ccncc4)c3)C(=O)c3sc4ccccc4c3Cl)CC2)c1", "note": "(stereo not shown) [compound 11, N-((1r,4r)-4-(3-Acetamidobenzamido)cyclohexyl)-3-chloro-N-(3-(pyridin-4-yl)benzyl)benzo[b]thiophene-2-carboxamide]", "values": [{"measurement": "IC50", "setting": "ΔCRD-Nluc-FZD6", "result": 851, "unit": "nM"}, {"measurement": "IC50", "setting": "Nluc-FZD7", "result": 891, "unit": "nM"}, {"measurement": "Interference with Fluc bioluminescence", "setting": "[1]", "result": "interferes with Fluc bioluminescence"}, {"measurement": "Subtype preference in TOPFlash assays", "setting": "[2]", "result": "did not show a subtype preference"}, {"measurement": "Cell viability of RNF43-negative HPAF-II cells", "setting": "HPAF-II cells", "result": "strongly reduced"}, {"measurement": "IC50", "setting": "Nluc-FZD5", "result": 759, "unit": "nM"}, {"measurement": "IC50", "setting": "human FZD5; equal to the pIC50, read-out: IC50, inhibition of WNT-3A-induced TOPFlash response", "result": 1200, "unit": "nM"}, {"measurement": "IC50", "setting": "human FZD5; read-out: pIC50, inhibition of WNT-3A-induced TOPFlash response (converted)", "result": 1200, "unit": "nM"}, {"measurement": "Effect on WNT surrogate-induced TOPFlash signal", "setting": "human FZD5; WNT surrogate 250 pM, coaddition of compound", "result": "could also be blocked"}, {"measurement": "TOPFlash response to compound alone", "setting": "human FZD5; absence of added WNT-3A", "result": "not inducing any effect"}]}]}
